According to patent publication US5731155A, “Compositions for inhibition of intracellular transcription factors and methods therefor” (Washington University, priority 1996, dated 1998):
Entries after “also recorded” stand apart in the source; their conditions may differ. Where a SMILES comes first, the peptide text is derived from it. [ ]: non-standard residue; d: D form. The star is where a group is joined. Biotin = O=C1N[C@H]2[C@H](CS[C@H]2CCCCC(=O)*)N1; pY = N[C@@H](Cc1ccc(OP(=O)(O)O)cc1)C(=O)O; Ahx = NCCCCCC(=O)O

What was measured:
STAT3 [1] = biological target: T1, STAT3 (Mus musculus, UniProt P42227); test: Precipitation of STAT3 from BaMR cytosolic homogenates with biotinylated IL-10 receptor peptides; assay type: binding; conditions: for precipitation of / binding to the 92 kD STAT3 protein: biotinylated 12 amino acid peptides, BaMR cytosolic homogenates; for concentration of biotinylated peptide sufficient to precipitate STAT3 (comparable amounts): increasing peptide concentrations, data not shown
T1 construct: Cytosolic homogenates of BaMR cells were precipitated with the biotinylated 12 amino acid peptides; endogenous in cells; host or cells: BaMR (BaF3 pre-B cells transfected with the IL-10 receptor) homogenates
T1 sequence (P42227 whole entry): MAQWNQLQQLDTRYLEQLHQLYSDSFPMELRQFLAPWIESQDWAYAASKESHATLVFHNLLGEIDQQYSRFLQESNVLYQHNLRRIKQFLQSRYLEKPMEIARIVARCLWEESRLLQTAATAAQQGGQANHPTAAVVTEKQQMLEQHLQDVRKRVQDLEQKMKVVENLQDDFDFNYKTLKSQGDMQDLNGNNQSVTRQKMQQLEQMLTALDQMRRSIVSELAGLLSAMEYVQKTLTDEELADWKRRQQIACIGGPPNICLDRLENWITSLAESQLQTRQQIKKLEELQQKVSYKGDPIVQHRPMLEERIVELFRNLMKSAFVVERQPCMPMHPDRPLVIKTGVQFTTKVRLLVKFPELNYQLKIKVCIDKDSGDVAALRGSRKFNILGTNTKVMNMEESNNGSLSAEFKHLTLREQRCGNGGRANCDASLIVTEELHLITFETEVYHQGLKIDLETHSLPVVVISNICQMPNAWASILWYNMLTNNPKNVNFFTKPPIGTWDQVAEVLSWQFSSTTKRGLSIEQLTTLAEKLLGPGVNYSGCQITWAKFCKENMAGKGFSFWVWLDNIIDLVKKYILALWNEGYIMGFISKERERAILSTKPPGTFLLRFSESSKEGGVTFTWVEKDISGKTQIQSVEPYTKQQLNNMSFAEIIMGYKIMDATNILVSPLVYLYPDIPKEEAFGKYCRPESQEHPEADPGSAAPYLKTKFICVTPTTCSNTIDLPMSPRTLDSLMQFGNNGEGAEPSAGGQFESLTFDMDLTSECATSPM
Excerpt: Aminoterminally biotinylated peptides were synthesized comprising 12 amino acids in which the peptides each contained a different region of the IL-10 receptor intracellular domain containing a tyrosine residue. These peptides corresponded to positions 370 to 381 (SEQ ID NO:26, Gln-Gln-Leu-Gly-Xaa-His-Gln-Asp-Gln-Asp-Asp-Ser), 392-403 (SEQ ID NO:27, Gly-Gln-Pro-Lys-Xaa-Thr-Gln-Asp-Ala-Ser-Asp-Leu), 423 to 434 (SEQ ID NO:24, Thr-Phe-Gln-Gly-Xaa-Gln-Lys-Gln-Thr-Arg-Trp-Lys) and 473 to 484 (SEQ ID NO:25, Leu-Ala-Ala-Gly-Xaa-Leu-Lys-Gln-Glu-Ser-Gln-Gly) in which the amino acids identified in the sequence as Xaa in positions 374, 396, 427, and 477 of the respectively peptides are phosphorylated tyrosines. In addition, the sequences 423 to 434 (SEQ ID NO:28, Thr-Phe-Gln-Gly-Tyr-Gln-Lys-Gln-Thr-Arg-Trp-Lys) and 473 to 484 (SEQ ID NO:29, Leu-Ala-Ala-Gly-Tyr-Leu-Lys-Gln-Glu-Ser-Gln-Gly) contained the non-phosphorylated tyrosines in the positions 427, and 477 of the IL-10 receptor intracellular domain. Cytosolic homogenates of BaMR cells were precipitated with the biotinylated 12 amino acid peptides. […] In contrast to this, no binding to the STAT3 transcription factor occurred with the peptides containing phosphorylated tyrosines in positions 374 (SEQ ID NO:26) and 396 (SEQ ID NO:27), the peptides containing non-phosphorylated tyrosines in positions 427 (SEQ ID NO:28) and 477 (SEQ ID NO:29) and the phosphorylated peptide corresponding to the amino acid sequences 436 to 447 of the IFNγ receptor α chain intracellular domain (FIG. 10). Whereas both the 427 and the 477 phosphopeptides precipitated the STAT3 transcription factor, none of the phosphopeptides coprecipitated STAT1.

STAT3 [2] = biological target: T1, STAT3; test: Inhibition of IL-10 dependent STAT3 phosphorylation in BaMR cell homogenates; assay type: biochemical; conditions: for effect on IL-10 dependent phosphorylation of STAT3: peptide 100 μM, 45 minutes at 4° C., then 100 ng/ml IL-10
Experimental: BaMR cell homogenates were prepared in a Dounce homogenizer and 18 μg of total protein was incubated without or with IL-10 at a concentration of 100 ng/ml for 15 minutes at 37° C. (FIG. 11, lanes 1 and 2). In lanes 3-8, 18 μg total protein of the BaMR homogenates was incubated for 45 minutes at 4° C. with a 100 μM concentration of the IL-10-receptor peptides having phosphorylated tyrosines at positions 374 (SEQ ID NO:26), 396 (SEQ ID NO:27), 427(SEQ ID NO:24), and 477(SEQ ID NO:25) (lanes 3-6) or 100 μM concentration of the non phosphorylated peptides having tyrosines at positions 427 (SEQ ID NO:28) and 477 (SEQ ID NO:29). Reaction mixtures were stimulated with 100 ng/ml IL-10 as described above and homogenates were precipitated with STAT3 or STAT1 specific antisera. Precipitates were blotted with phosphotyrosine specific antibody RC-20 and reactions developed using the ECL-system. Blots were stripped and reblotted with STAT3 and STAT1 specific antisera, respectively.

IFNγ receptor α chain = test: IFNγ dependent tyrosine phosphorylation of the IFNγ receptor α chain in Colo-205 cells (4G10 western blot); assay type: cell-based, human; conditions: Colo-205 treated for 5 minutes
Excerpt: For these experiments, Colo-205, a human adenocarcinoma cell line obtained from the ATCC, was used because it was known to express a high number of IFNγ receptors (10,000 receptors/cell) and has been well characterized with regard to both biologic responsiveness to IFNγ and IFNγ receptor […] phosphorylation (Hershey and Schreiber, 1989; Hershey et al., 1990 both of which are incorporated by reference). Colo-205 cells (5-10×10^7) were resuspended in one ml of PBS-10% FCS and were then incubated at 37° C., either in the presence or absence of rHuIFNγ (10,000 IRU). Purified recombinant human IFNγ was provided by Dr. Susan Kramer of Genentech, Inc. (South San Francisco, Calif.). […] Purified rHuIFNγ was radioiodinated, using Bolton Hunter reagent (ICN Chemicals, Radioisotope Division, Irvine, Calif.) to specific activities of 6.5-17.8 μCi/μg as described in Celada et al. (J Clin Invest 76:2196-2205, 1985 which is incorporated by reference). The reaction was stopped by adding 4 mls of ice-cold PBS. Cells were pelleted, washed once in ice-cold PBS, and then lysed in one ml of lysis buffer (25 mM Tris-HCl (pH 8.0), 1% NP-40, 150 mM NaCl, 1 mM sodium orthovanadate, 10 mM NaF, 1 mM PMSF, 5mM iodoacetamide, […] leupeptin and aprotinin). Solubilized cells were centrifuged at 15,000×g to remove cell nuclei and the supernatants were then incubated with 10 μg of GIR-94 for 30 minutes at 4° C. Protein G sepharose was added to the reaction mixture and the incubation continued for an additional 30 minutes. […]
To determine the amount of receptor precipitated at each time point, aliquots from each immunoprecipitate were subjected to western blot analysis using a monoclonal antibody (GIR-94, a murine antibody IgG2b) that is specific for the human IFNγ receptor extracellular domain. In the absence of added IFNγ, no tyrosine phosphorylated receptor was detected (FIG. 1, lane 1). […]

Compound | precipitation of / binding to the 92 kD STAT3 protein (STAT3 [1]) | further results
CC(C)C[C@H](NC(=O)[C@@H](NC(=O)[C@H](Cc1c[nH]cn1)NC(=O)[C@@H]1CCCN1C(=O)[C@H](CCCCN)NC(=O)[C@H](CC(=O)O)NC(=O)[C@H](Cc1ccc(OP(=O)(O)O)cc1)NC(=O)CNC(=O)[C@H](Cc1ccccc1)NC(=O)[C@H](CO)NC(=O)[C@@H](NC(=O)CCCCCNC(=O)CCCC[C@@H]1SC[C@@H]2NC(=O)N[C@@H]21)[C@@H](C)O)C(C)C)C(=O)N[C@H](C(=O)O)C(C)C [SEQ ID NO:4, Biotin-TSFGY-PO4 DKPHVLV] ({Biotin-Ahx}-TSFG[pY]DKPHVLV-OH) | no binding | 
CC(C)C[C@H](NC(=O)[C@H](CCC(N)=O)NC(=O)[C@H](CCC(N)=O)NC(=O)CCCCCNC(=O)CCCC[C@@H]1SC[C@@H]2NC(=O)N[C@@H]21)C(=O)NCC(=O)N[C@@H](Cc1ccc(OP(=O)(O)O)cc1)C(=O)N[C@@H](Cc1c[nH]cn1)C(=O)N[C@@H](CCC(N)=O)C(=O)N[C@@H](CC(=O)O)C(=O)N[C@@H](CCC(N)=O)C(=O)N[C@@H](CC(=O)O)C(=O)N[C@@H](CC(=O)O)C(=O)N[C@@H](CO)C(=O)O [SEQ ID NO:26, Gln-Gln-Leu-Gly-Xaa-His-Gln-Asp-Gln-Asp-Asp-Ser] ({Biotin-Ahx}-QQLG[pY]HQDQDDS-OH) | no binding | 
CC(C)C[C@H](NC(=O)[C@H](CC(=O)O)NC(=O)[C@H](CO)NC(=O)[C@H](C)NC(=O)[C@H](CC(=O)O)NC(=O)[C@H](CCC(N)=O)NC(=O)[C@@H](NC(=O)[C@H](Cc1ccc(OP(=O)(O)O)cc1)NC(=O)[C@H](CCCCN)NC(=O)[C@@H]1CCCN1C(=O)[C@H](CCC(N)=O)NC(=O)CNC(=O)CCCCCNC(=O)CCCC[C@@H]1SC[C@@H]2NC(=O)N[C@@H]21)[C@@H](C)O)C(=O)O [SEQ ID NO:27, Gly-Gln-Pro-Lys-Xaa-Thr-Gln-Asp-Ala-Ser-Asp-Leu] ({Biotin-Ahx}-GQPK[pY]TQDASDL-OH) | no binding | 
C[C@@H](O)[C@H](NC(=O)CCCCCNC(=O)CCCC[C@@H]1SC[C@@H]2NC(=O)N[C@@H]21)C(=O)N[C@@H](Cc1ccccc1)C(=O)N[C@@H](CCC(N)=O)C(=O)NCC(=O)N[C@@H](Cc1ccc(O)cc1)C(=O)N[C@@H](CCC(N)=O)C(=O)N[C@@H](CCCCN)C(=O)N[C@@H](CCC(N)=O)C(=O)N[C@H](C(=O)N[C@@H](CCCNC(=N)N)C(=O)N[C@@H](Cc1c[nH]c2ccccc12)C(=O)N[C@@H](CCCCN)C(=O)O)[C@@H](C)O [SEQ ID NO:28, Thr-Phe-Gln-Gly-Tyr-Gln-Lys-Gln-Thr-Arg-Trp-Lys] ({Biotin-Ahx}-TFQGYQKQTRWK-OH) | no binding | 
CC(C)C[C@H](NC(=O)CCCCCNC(=O)CCCC[C@@H]1SC[C@@H]2NC(=O)N[C@@H]21)C(=O)N[C@@H](C)C(=O)N[C@@H](C)C(=O)NCC(=O)N[C@@H](Cc1ccc(O)cc1)C(=O)N[C@@H](CC(C)C)C(=O)N[C@@H](CCCCN)C(=O)N[C@@H](CCC(N)=O)C(=O)N[C@@H](CCC(=O)O)C(=O)N[C@@H](CO)C(=O)N[C@@H](CCC(N)=O)C(=O)NCC(=O)O [SEQ ID NO:29, Leu-Ala-Ala-Gly-Tyr-Leu-Lys-Gln-Glu-Ser-Gln-Gly] ({Biotin-Ahx}-LAAGYLKQESQG-OH) | no binding | 
Leu-Ala-Ala-Gly-Xaa-Leu-Lys-Gln-Glu-Ser-Gln-Gly [SEQ ID NO:25] | specifically precipitated; also recorded: coprecipitated | concentration of biotinylated peptide sufficient to precipitate STAT3 (comparable amounts) (STAT3 [1]): 4 to 20 µM; effect on IL-10 dependent phosphorylation of STAT3 (STAT3 [2]): specifically inhibited
Thr-Phe-Gln-Gly-Xaa-Gln-Lys-Gln-Thr-Arg-Trp-Lys [SEQ ID NO:24] | specifically precipitated; also recorded: coprecipitated | concentration of biotinylated peptide sufficient to precipitate STAT3 (comparable amounts) (STAT3 [1]): 0.8 µM; potency in inhibiting STAT3 phosphorylation relative to SEQ ID NO:25 (STAT3 [2]; concentration-dependent inhibition, FIG. 12): 5 to 10 fold; effect on IL-10 dependent phosphorylation of STAT3 (STAT3 [2]): specifically inhibited
rHuIFNγ: Purified recombinant human IFNγ provided by Genentech, Inc. |  | IFNγ dose at which IFNγ receptor tyrosine phosphorylation reached maximal levels (IFNγ receptor α chain): 10,000 IRU/ml; IFNγ dose at which IFNγ receptor tyrosine phosphorylation was detected (IFNγ receptor α chain): 100 IRU/ml
